# Source: patent US20210330611A1, “THERAPY FOR NEUROLOGICAL DISEASES/DISORDERS” (priority 2020, published 2021)
# Where two headings read alike, the source gives them in different places.
# How the values were obtained:
# primary rat microglia [1] = experiment: Cell toxicity (dead cells, size <150 μm2) in coated fibrin (cFib) assay; conditions: primary microglia HTS, fibrin stimulation, cell size <150 μm2 as marker of toxicity;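 further: share of dead cells sized under 150 µm2 at 10 µM in fibrin-stimulated microglia HTS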
# [2] = test system: LPS-induced microglia activation; experiment: Image-based assay of LPS-induced microglia activation (HTS and dose response); type: cell-based, rat; conditions: for inhibition at 10 µM: Rattus norvegicus, Microglia, 48 h, read-out: LPS % inhibition
# primary rat microglia [3] = test system: primary rat microglia
# [4] = test system: fibrin- and LPS-induced microglia activation; experiment: cells; type: cell-based, rat; conditions: classification by fibrin and LPS inhibition in HTS
# [5] = test system: fibrin-induced microglia activation; experiment: Image-based assay of fibrin-induced microglia activation (HTS and dose response); type: cell-based, rat; conditions: primary microglia HTS, fibrin stimulation, cell size >800 μm2 as marker of activation; for inhibition at 10 µM: Rattus norvegicus, Microglia, read-out: Fibrin % inhibition
Compound,Fibrin % cell toxicity (primary rat microglia [1]),inhibition at 10 µM [2],LPS % cell toxicity (primary rat microglia [3]; rat),Quadrant (FIG. 5b) [4],inhibition at 10 µM [5],LPS % inhibition [2],LPS % cell toxicity (primary rat microglia [3]),Fibrin % inhibition [5]
NC(=O)c1cnccn1 [Pyrazinamide],0%,13%,0%,Q4,-20%,–,–,–
CN(C)C(=O)Oc1ccc[n+](C)c1 [Pyridostigmine],1%,9%,0%,Q4,4%,–,–,–
CCc1nc(N)nc(N)c1-c1ccc(Cl)cc1 [Pyrimethamine],1%,12%,1%,Q4,-11%,–,–,–
CCC1(CC)C(=O)C=CNC1=O [Pyrithyldione],1%,9%,0%,Q4,-24%,–,–,–
Cc1ncc(CSSCc2cnc(C)c(O)c2CO)c(CO)c1O [Pyritinol],1%,4%,0%,Q4,-15%,–,–,–
COc1ccc2nc3cc(Cl)ccc3c(Nc3cc(CN4CCCC4)c(O)c(CN4CCCC4)c3)c2n1.O=P(O)(O)O.O=P(O)(O)O.O=P(O)(O)O.O=P(O)(O)O [Pyronaridine Tetraphosphate],1%,–,–,Q4,–,9%,0%,16%
CCOC(=O)[C@H](CCc1ccccc1)N[C@@H](C)C(=O)N1Cc2ccccc2C[C@H]1C(=O)O [Quinapril],1%,13%,0%,Q4,-24%,–,–,–
C[C@H](N[C@@H](CCc1ccccc1)C(=O)O)C(=O)N1Cc2ccccc2C[C@H]1C(=O)O [Quinaprilat],1%,5%,0%,Q4,-5%,–,–,–
C#C[C@]1(O)CC[C@H]2[C@@H]3CCc4cc(OC5CCCC5)ccc4[C@H]3CC[C@@]21C [Quinestrol],0%,24%,0%,Q4,15%,–,–,–
C=C[C@H]1CN2CC[C@H]1C[C@H]2[C@H](OC(=O)OCC)c1ccnc2ccc(OC)cc12 [Quinine Ethyl Carbonate],0%,-11%,0%,Q4,-21%,–,–,–
"O=C(O)/C=C\C(=O)O.O=C(O)/C=C\C(=O)O.c1ccc2nc(N3CCNCC3)ccc2c1 [Quipazine Dimaleate, Quipazine Maleate]",1%,–,–,Q4,–,9%,0%,−18%
COCCCOc1ccnc(C[S+]([O-])c2nc3ccccc3[nH]2)c1C (centres unmarked) [Rabeprazole],0%,3%,0%,Q4,-46%,–,–,–
CC(=O)SCC(Cc1ccccc1)C(=O)NCC(=O)OCc1ccccc1 (centres unmarked) [Racecadotril],1%,18%,0%,Q4,-51%,–,–,–
CCC(=O)NCC[C@@H]1CCc2ccc3c(c21)CCO3 [Ramelteon],0%,20%,0%,Q4,25%,–,–,–
Cc1c(NC(C)C)c(=O)n(-c2ccccc2)n1C [Ramifenazone],0%,9%,0%,Q4,-11%,–,–,–
CCOC(=O)[C@H](CCc1ccccc1)N[C@@H](C)C(=O)N1[C@H](C(=O)O)C[C@@H]2CCC[C@@H]21 [Ramipril],0%,16%,0%,Q4,8%,–,–,–
CNC(=C[N+](=O)[O-])NCCSCc1ccc(CN(C)C)o1 [Ranitidine],1%,15%,0%,Q4,35%,–,–,–
CCN1CCC[C@H]1CNC(=O)c1c(OC)ccc(Br)c1OC [Remoxipride],1%,3%,0%,Q4,-14%,–,–,–
CCOc1cc(CC(=O)N[C@@H](CC(C)C)c2ccccc2N2CCCCC2)ccc1C(=O)O [Repaglinide],1%,18%,0%,Q4,-14%,–,–,–
CC(=O)Oc1cccc(O)c1 [Resorcinol Monoacetate],1%,26%,1%,Q4,12%,–,–,–
CC(=O)OC/C=C(C)/C=C/C=C(C)/C=C/C1=C(C)CCCC1(C)C [Retinyl Acetate],1%,15%,0%,Q4,3%,–,–,–
NC[C@H]1O[C@H](O[C@H]2[C@H](O[C@@H]3O[C@H](CO)[C@@H](O)[C@H]3O)[C@@H](O)[C@H](N)C[C@@H]2N)[C@H](N)[C@@H](O)[C@@H]1O.O=S(=O)(O)O [Ribostamycin Sulfate],0%,–,–,Q4,–,13%,0%,−16%
CO[C@H]1/C=C/O[C@@]2(C)Oc3c(C)c(O)c4c(O)c(c(/C=N/N5CCN(C6CCCC6)CC5)c(O)c4c3C2=O)NC(=O)/C(C)=C\C=C\[C@H](C)[C@H](O)[C@@H](C)[C@@H](O)[C@@H](C)[C@H](OC(C)=O)[C@@H]1C [Rifapentine],1%,-7%,0%,Q4,-23%,–,–,–
CO[C@H]1/C=C/O[C@@]2(C)Oc3c(C)c(O)c4c(O)c(c5c(nc6cc(C)ccn65)c4c3C2=O)NC(=O)/C(C)=C\C=C\[C@H](C)[C@H](O)[C@@H](C)[C@@H](O)[C@@H](C)[C@H](OC(C)=O)[C@@H]1C [Rifaximin],0%,22%,2%,Q4,6%,–,–,–
O=P(O)(O)C(O)(Cc1cccnc1)P(=O)(O)O [Risedronate],1%,15%,0%,Q4,47%,–,–,–
CN(C)CCc1c[nH]c2ccc(Cn3cncn3)cc12 [Rizatriptan],1%,10%,0%,Q4,-9%,–,–,–
C=CC[N+]1([C@H]2C[C@H]3[C@@H]4CC[C@H]5C[C@H](O)[C@@H](N6CCOCC6)C[C@]5(C)[C@H]4CC[C@]3(C)[C@H]2OC(C)=O)CCCC1 [Rocuronium],1%,5%,0%,Q4,-22%,–,–,–
CS(=O)(=O)c1ccc(C2=C(c3ccccc3)C(=O)OC2)cc1 [Rofecoxib],0%,14%,0%,Q4,15%,–,–,–
